Results: patent US20100048682A1, “INHIBITING DNA POLYMERASE BETA TO ENHANCE EFFICACY OF ANTICANCER AGENTS” (UNIVERSITY OF PITTSBURGH - OF THE COMMONWEALTH SYSTEM OF …, priority 2005, published 2010)

Assays:
Wt cells (92TAg) = assay: TMZ growth inhibition assay (modified MTT, MTS); type: cell-based; conditions: Mus musculus, TMZ exposure 48 hr
Description: (§1) Culture Conditions and Cell Cytotoxicity Assays. Transformed MEFs were cultured at 37° C. in a humidified incubator with 10% CO2 in DMEM supplemented with 10% fetal bovine serum, penicillin (50 units/ml), streptomycin (50 μg/ml) and Glutamax (4 mM). Human embryonic kidney cells (293T) were cultured similarly in DMEM supplemented with 10% fetal bovine serum, penicillin (50 units/ml), streptomycin (50 μg/ml) and Glutamine (4 mM). TMZ, MMS and MMC induced cytotoxicity was determined by growth inhibition assays. Briefly, cells were seeded in 96-well dishes at 1250 cells/well. After 24 hours, cells (quadruplicate wells) were exposed to serial dilutions of damaging agent in growth media for 1-2 hours (or as indicated in the text) at 37° C. Drug-containing medium was replaced with fresh medium and the plates were incubated at 37° C. for 48 hours at which point the total cell number was determined by a modified MTT assay (MTS; Promega). Metabolically active cells were quantified by the bioreduction of the MTS tetrazolium compound by recording absorbance at 490 nm using a microplate reader. Results were calculated from the average of four separate experiments and are reported as the % of treated cells relative to the cells in control wells (% Control).

[1] = tested on: Wt pol-β knockdown cells over-expressing hAag (wt hAag.2/polβ-KD.4, wt hAag.3/polβ-KD.4); assay: TMZ growth inhibition assay (modified MTT, MTS); type: cell-based, mouse; conditions: for IC50: Mus musculus
Description: Cell Lines and Transfection Conditions. Transformed MEF cell lines (92TAg, Wt; 88TAg, pol-β null; 308TAg, Aag null and 283TAg, pol-β null/Aag null) have been described previously and are available from the ATCC. 293T cells were a gift from J. O'Bryan (NIEHS, NIH). Primary cultures of pol-λ, null MEFs were a kind gift from C.A. Reynaud (Faculte de Medecine Necker-Enfants Malades, Paris, France). The pol-ι null MEFs were derived from C129SvJ mice as described previously and identified by PCR to confirm the pol-ι null mutation. These were immortalized by SV40 large T-antigen (370TAg, pol-λ, null; 369TAg, pol-ι null) as described previously. Human Aag over-expressing cell lines were prepared as follows: briefly, 1.5×10^5 cells were seeded into 60 mm dishes and incubated for 24-30 hours at 10% CO2 at 37° C. The Aag expression plasmid (pRS1422) was transfected using FuGene 6 Transfection Reagent (Roche Diagnostic Corp) according to the manufacturer's instructions. Stable cell lines were selected in G418 (600 μg/ml) for 2 weeks, individual clones were amplified and 20 μg of nuclear extract was analyzed by immunoblotting for the expression of human Aag protein and then re-probed for expression of pol-β and PCNA.
Transfection of the pSuper siRNA plasmids was completed as follows: Briefly, 1.5×10^5 cells were seeded into 60 mm dishes and incubated for 24-30 hours at 10% CO2 at 37° C. […] For transient transfections, cells were lysed 24 hours post transfection by boiling in Laemmli buffer and analyzed by immunoblotting for the expression of the V5-pol-β transgene using anti-V5 (Invitrogen). […] Individual clones were amplified and 20 μg of nuclear extract was analyzed by immunoblotting for the expression of endogenous pol-β protein using the Nucbuster nuclear protein extract reagent (Novagen) and then re-probed for expression of PCNA as a loading control.
Culture Conditions and Cell Cytotoxicity Assays. […] TMZ, MMS and MMC induced cytotoxicity was determined by growth inhibition assays. […]

[2] = tested on: MDA-MB-231 cells with Mpg/Aag over-expression combined with pol-β knockdown; assay: Temozolomide growth inhibition assay (MTS); type: cell-based, human; conditions: TMZ 48 hours; compared to the parental MDA-MB-231 cells
Description: Culture Conditions and Cell Cytotoxicity Assays. Human Mpg over-expression, human pol-β knockdown and human pol-β over-expressing MDA-MB-231 breast cancer cell lines were cultured at 37° C. in a humidified incubator with 5% CO2 in RPMI 1640 (Cambrex Biosciences Group, Walkersville, Md.) supplemented with 10% heat inactivated fetal bovine serum and gentamicin (10 μg/ml). Temozolomide induced cytotoxicity was determined by growth inhibition assays. Briefly, cells were seeded in 96-well dishes at 2000 cells/well. After 24 hours, cells (quadruplicate wells) were exposed to serial dilutions of Temozolomide in growth media at 37° C. for 48 hours at which point the total cell number was determined by a modified 3-(4,5-dimethylthiazol-2-yl)-2,5-diphenyltetrazolium bromide (MTT) assay (MTS; Promega Madison, Wis.) (Cory et al., Cancer Communications; 3(7):207-12 (1991)). Metabolically active cells were quantified by the bioreduction of the MTS tetrazolium compound by recording absorbance at 490 nm using a microplate reader. Results were calculated from the average of four separate experiments and are reported as the % of treated cells relative to the cells in control wells (% Control).

γ-H2AX = γ-H2AX immunoblotting; type: cell-based, mouse; conditions: MMS 1 hr or TMZ 2 hr exposure
Description: For γ-H2AX immunoblotting, protein was prepared as follows: briefly, 6×10^5 cells were seeded into 150 mm dishes and incubated for 24 hours at 10% CO2 at 37° C. Cells were treated with MMS and TMZ for 1 or 2 hr respectively, and whole cells were scraped from the plates in 1×PBS, washed, and immediately placed on dry ice. Thawed pellets were re-suspended in a 1:1 ratio of RIPA buffer and Laemmli buffer. Samples were boiled for 5 minutes and protein from an equal cell number was added to each well. Protein was separated by electrophoresis in a 12% SDS-polyacrylamide gel and electro-transferred to a […] nitrocellulose membrane (Trans-Blot, Bio-Rad). Membranes were blocked for 20 minutes in a 3% dried milk/TBS solution at room temperature and incubated with 0.5-1 μg/ml of anti-phospho-H2AX (Serine 139) (Upstate) prepared in TBS/3% dried milk and 0.1% Tween20 over night at 4° C. Membranes were washed twice with water and incubated with horseradish peroxidase (HRP)-conjugated secondary antibody (goat anti-rabbit HRP; Bio-Rad) at room temperature for 1.5 hour. Following a series of washes with water and TBS, HRP activity was detected using the Super Signal West Femto reagent (Pierce). Each membrane was re-probed with anti-PCNA to correct for differences in protein loading, and densitometry was used to quantitate with Quantity One 1-D analysis software (BioRad).

pol-β null cells (88TAg) = assay: Growth inhibition assay (modified MTT, MTS); type: cell-based, mouse; conditions: MTS viability 48 hr after 1-2 hr exposure
Description: as §1

Structure (SMILES): Cn1nnc2c(C(N)=O)ncn2c1=O [TMZ, temozolomide]
- IC50 (Wt cells (92TAg)): 2600 µM
- IC50 ([1]; TMZ exposure 2 hr, viable cells after 48 hr, wt hAag.2/polβ-KD.4 and wt hAag.3/polβ-KD.4 cells): 1250 µM
- IC50 ([1]; TMZ exposure 48 hr, wt hAag.3/Polβ-KD.4 cells): ~700 µM
- TMZ efficacy improved ([1]; TMZ exposure 48 hr, hAag over-expression plus pol-β knockdown compared with Wt cells): ~4 fold
- decrease in IC50 [2]: ~10 fold

Structure (SMILES): COS(C)(=O)=O [MMS, Methyl methanesulfonate]
- γ-H2AX expression in pol-β deficient cells as compared to Wt cells (γ-H2AX): clear increase

Structure (SMILES): CO[C@@]12[C@H](COC(N)=O)C3=C(C(=O)C(C)=C(N)C3=O)N1C[C@@H]1N[C@@H]12 [MMC, Mitomycin C]
- sensitivity of pol-β null cells relative to Wt and other null cells (pol-β null cells (88TAg)): equally sensitive
